# Like-named read-outs stand apart in the source and are kept apart here.
# Tests used:
# [1] = test system: S. epidermidis T 5253 845/19; assay: MIC, clinical S. epidermidis strain; type: cell-based; conditions: Staphylococcus epidermidis, T5253845/19, quinolone-resistant, 18 h of treatment
# [2] = test system: M. tuberculosis H37Rv; assay: MABA (microplate Alamar blue assay) MIC; type: cell-based; conditions: Mycobacterium tuberculosis, 336 h, read-out: MIC M. tuberculosis H37Rv
# [3] = test system: S. epidermidis KR 4243 829/19; assay: MIC, clinical S. epidermidis strain; type: cell-based; conditions: Staphylococcus epidermidis, KR4243829/19, quinolone-susceptible, 18 h of treatment
# [4] = test system: HaCaT cells; assay: MTT assay, HaCaT normal cells; type: cell-based; conditions: human immortal keratinocyte cell line, 72 h, mean ± SD
# [5] = test system: S. aureus NCTC 4163; assay: MIC, twofold microdilution, standard strain; type: cell-based; conditions: Staphylococcus aureus, NCTC4163; 18 h of treatment; read-out: MIC S. aureus NCTC 4163
# [6] = test system: E. coli ATCC 25922; assay: MIC, twofold microdilution, standard strain; type: cell-based, Escherichia coli; conditions: for MIC: Escherichia coli, read-out: MIC E. coli ATCC 25922
# [7] = test system: S. epidermidis KR 4358/2 840/19; assay: MIC, clinical S. epidermidis strain; type: cell-based; conditions: Staphylococcus epidermidis, KR4358/2840/19; clinical S. epidermidis, quinolone-susceptible, 18 h of treatment; read-out: MIC KR 4358/2 840/19
# [8] = test system: SW480 cells; assay: MTT assay, SW480; type: cell-based, human; conditions: for IC50: Homo sapiens, SW480, 72 h, human primary colon cancer, 72 h, MTT, mean ± SD; for SI SW480: SI = IC50 for normal cell line (HaCaT)/IC50 cancer cell line
# [9] = test system: S. epidermidis T 5501 851/19; assay: MIC, clinical S. epidermidis strain; type: cell-based; conditions: Staphylococcus epidermidis, T5501851/19, read-out: MIC T 5501 851/19, quinolone-susceptible, 18 h of treatment
# [10] = test system: S. epidermidis KR 4047 825/19; assay: MIC, clinical S. epidermidis strain; type: cell-based; conditions: Staphylococcus epidermidis, KR4047825/19, quinolone-resistant, 18 h of treatment
# [11] = test system: S. aureus ATCC 29213; assay: MIC, twofold microdilution, standard strain; type: cell-based; conditions: Staphylococcus aureus, ATCC29213; 18 h of treatment; read-out: MIC S. aureus ATCC 29213
# [12] = test system: S. epidermidis KR 4313 834/19; assay: MIC, clinical S. epidermidis strain; type: cell-based; conditions: Staphylococcus epidermidis, KR4313834/19, quinolone-susceptible, 18 h of treatment
# [13] = test system: SW620 cells; assay: MTT assay, SW620; type: cell-based, human; conditions: for IC50: human metastatic colon cancer, 72 h, MTT, mean ± SD; for SI SW620: SI = IC50 for normal cell line (HaCaT)/IC50 cancer cell line
# [14] = test system: quinolone-susceptible clinical coagulase-negative staphylococci; assay: MIC, quinolone-susceptible clinical isolates as a group; type: cell-based; conditions: Staphylococcus epidermidis, five quinolone-susceptible isolates, read-out: MIC against quinolone-susceptible clinical isolates
# [15] = test system: S. epidermidis T 5399 848/19; assay: MIC, clinical S. epidermidis strain; type: cell-based; conditions: Staphylococcus epidermidis, T5399848/19, quinolone-susceptible, 18 h of treatment
# [16] = test system: S. aureus ATCC 25923; assay: MIC, twofold microdilution, standard strain; type: cell-based; conditions: Staphylococcus aureus, ATCC25923; 18 h of treatment; read-out: MIC S. aureus ATCC 25923
# [17] = test system: P. aeruginosa ATCC 27853; assay: MIC, twofold microdilution, standard strain; type: cell-based; conditions: Pseudomonas aeruginosa, ATCC27853; 18 h of treatment; read-out: MIC P. aeruginosa ATCC 27853
# [18] = test system: M. tuberculosis Spec. 192 (Sensitive to Tuberculostatics); assay: MABA (microplate Alamar blue assay) MIC; type: cell-based; conditions: Mycobacterium tuberculosis, 336 h, read-out: MIC M. tuberculosis Spec. 192 (Sensitive to Tuberculostatics)
# [19] = test system: S. epidermidis ATCC 12228; assay: MIC, twofold microdilution, standard strain; type: cell-based; conditions: Staphylococcus epidermidis, ATCC12228; 18 h of treatment; read-out: MIC S. epidermidis ATCC 12228
# [20] = test system: S. aureus ATCC 6538; assay: MIC, twofold microdilution, standard strain; type: cell-based; conditions: Staphylococcus aureus, ATCC6538; 18 h of treatment; read-out: MIC S. aureus ATCC 6538
# [21] = test system: standard staphylococci (S. aureus, S. epidermidis); assay: MIC, standard Gram-positive strains as a group; type: cell-based; conditions: Staphylococcus aureus; range over standard Gram-positive strains; read-out: MIC against standard staphylococci
# [22] = test system: PC3 cells; assay: MTT assay, PC3; type: cell-based, human; conditions: for IC50: human metastatic prostate cancer, 72 h, MTT, mean ± SD; for SI PC3: SI = IC50 for normal cell line (HaCaT)/IC50 cancer cell line
# [23] = test system: S. epidermidis ATCC 35984; assay: MIC, twofold microdilution, standard strain; type: cell-based; conditions: Staphylococcus epidermidis, ATCC35984; 18 h of treatment; read-out: MIC S. epidermidis ATCC 35984
# [24] = molecular target: T1, S. aureus topoisomerase IV (Staphylococcus aureus, UniProt P0C1S7+P0C1U9); assay: S. aureus topoisomerase IV decatenation assay; type: biochemical
# T1 construct: purchased Inspiralis
# T1 sequence (P0C1U9 whole entry): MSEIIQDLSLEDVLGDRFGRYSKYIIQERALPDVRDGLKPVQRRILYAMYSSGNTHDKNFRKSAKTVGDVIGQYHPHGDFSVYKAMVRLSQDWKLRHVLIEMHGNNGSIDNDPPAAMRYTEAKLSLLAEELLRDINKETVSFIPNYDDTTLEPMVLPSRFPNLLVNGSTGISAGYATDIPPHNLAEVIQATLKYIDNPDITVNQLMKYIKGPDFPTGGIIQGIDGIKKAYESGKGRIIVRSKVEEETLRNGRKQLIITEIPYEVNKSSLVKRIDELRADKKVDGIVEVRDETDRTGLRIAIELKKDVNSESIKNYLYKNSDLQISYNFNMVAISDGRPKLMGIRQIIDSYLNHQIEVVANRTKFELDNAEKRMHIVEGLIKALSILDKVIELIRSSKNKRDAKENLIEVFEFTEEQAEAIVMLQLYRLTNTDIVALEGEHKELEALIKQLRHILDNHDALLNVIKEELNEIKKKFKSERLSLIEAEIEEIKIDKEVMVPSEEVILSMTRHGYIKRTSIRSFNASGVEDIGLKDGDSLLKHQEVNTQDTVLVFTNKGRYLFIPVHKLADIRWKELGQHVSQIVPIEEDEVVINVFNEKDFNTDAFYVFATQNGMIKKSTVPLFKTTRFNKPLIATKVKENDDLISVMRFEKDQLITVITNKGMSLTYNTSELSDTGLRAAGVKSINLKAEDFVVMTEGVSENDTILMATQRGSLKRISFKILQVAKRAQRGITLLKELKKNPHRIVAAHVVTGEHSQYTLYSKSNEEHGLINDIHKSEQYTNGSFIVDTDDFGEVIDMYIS
# T1 sequence (P0C1S7 whole entry): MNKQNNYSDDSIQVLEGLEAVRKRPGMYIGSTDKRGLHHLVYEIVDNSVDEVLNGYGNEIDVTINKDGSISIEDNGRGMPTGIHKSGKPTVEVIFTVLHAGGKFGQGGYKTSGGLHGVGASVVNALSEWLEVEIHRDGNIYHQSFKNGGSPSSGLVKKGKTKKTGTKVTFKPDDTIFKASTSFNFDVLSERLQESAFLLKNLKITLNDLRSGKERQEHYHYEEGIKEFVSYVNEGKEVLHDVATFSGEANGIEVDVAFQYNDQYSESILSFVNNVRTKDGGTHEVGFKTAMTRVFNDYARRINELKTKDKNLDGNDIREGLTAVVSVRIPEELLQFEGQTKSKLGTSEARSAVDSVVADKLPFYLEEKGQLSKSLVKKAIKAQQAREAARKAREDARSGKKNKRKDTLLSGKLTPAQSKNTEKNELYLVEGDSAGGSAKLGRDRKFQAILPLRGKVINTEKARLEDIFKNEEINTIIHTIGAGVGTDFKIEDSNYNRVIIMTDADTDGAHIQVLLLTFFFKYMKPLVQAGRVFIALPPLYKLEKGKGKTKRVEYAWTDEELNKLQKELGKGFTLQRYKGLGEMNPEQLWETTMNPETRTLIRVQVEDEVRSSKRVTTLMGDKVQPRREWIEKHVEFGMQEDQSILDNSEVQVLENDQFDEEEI
# Protocol: The assay was performed using S. aureus topoisomerase IV […] kit (Inspiralis). Kinetoplast DNA (kDNA) was the substrate for topoisomerase IV.
# [25] = test system: SW480, SW620, and PC3 cancer cell lines; assay: MTT assay, cancer cell lines as a group; type: cell-based, human; conditions: 72 h, all three cancer cell lines (SW480, SW620, PC3), read-out: IC50 against all tested cancer cell lines
# [26] = molecular target: S. aureus DNA gyrase (Staphylococcus aureus, UniProt P0A0K8+P20831); assay: biochemical
# Chain of S. aureus DNA gyrase (P20831 whole entry): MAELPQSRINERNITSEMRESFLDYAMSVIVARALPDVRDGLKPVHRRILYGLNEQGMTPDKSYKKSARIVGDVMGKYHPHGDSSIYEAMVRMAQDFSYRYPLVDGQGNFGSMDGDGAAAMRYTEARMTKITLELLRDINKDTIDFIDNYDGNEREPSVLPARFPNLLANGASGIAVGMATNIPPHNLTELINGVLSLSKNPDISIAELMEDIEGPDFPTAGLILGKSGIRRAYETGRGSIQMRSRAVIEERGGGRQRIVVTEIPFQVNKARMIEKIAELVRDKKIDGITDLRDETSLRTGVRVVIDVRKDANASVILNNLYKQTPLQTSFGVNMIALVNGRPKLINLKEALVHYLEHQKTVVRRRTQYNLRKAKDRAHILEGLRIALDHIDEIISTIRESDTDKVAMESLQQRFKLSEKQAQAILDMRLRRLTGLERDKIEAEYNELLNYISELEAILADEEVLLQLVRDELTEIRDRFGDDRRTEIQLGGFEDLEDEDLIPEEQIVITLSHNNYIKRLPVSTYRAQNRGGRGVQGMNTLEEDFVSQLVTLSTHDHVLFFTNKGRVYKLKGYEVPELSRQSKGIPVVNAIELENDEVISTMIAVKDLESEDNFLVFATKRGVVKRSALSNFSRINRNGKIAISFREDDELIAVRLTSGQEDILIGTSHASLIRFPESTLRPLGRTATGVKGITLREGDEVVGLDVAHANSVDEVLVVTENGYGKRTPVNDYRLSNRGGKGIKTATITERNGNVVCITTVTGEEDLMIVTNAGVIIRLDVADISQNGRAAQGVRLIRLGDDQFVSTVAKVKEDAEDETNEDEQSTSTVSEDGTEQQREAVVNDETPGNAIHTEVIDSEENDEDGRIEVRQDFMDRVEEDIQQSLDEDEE
# Chain of S. aureus DNA gyrase (P0A0K8 whole entry): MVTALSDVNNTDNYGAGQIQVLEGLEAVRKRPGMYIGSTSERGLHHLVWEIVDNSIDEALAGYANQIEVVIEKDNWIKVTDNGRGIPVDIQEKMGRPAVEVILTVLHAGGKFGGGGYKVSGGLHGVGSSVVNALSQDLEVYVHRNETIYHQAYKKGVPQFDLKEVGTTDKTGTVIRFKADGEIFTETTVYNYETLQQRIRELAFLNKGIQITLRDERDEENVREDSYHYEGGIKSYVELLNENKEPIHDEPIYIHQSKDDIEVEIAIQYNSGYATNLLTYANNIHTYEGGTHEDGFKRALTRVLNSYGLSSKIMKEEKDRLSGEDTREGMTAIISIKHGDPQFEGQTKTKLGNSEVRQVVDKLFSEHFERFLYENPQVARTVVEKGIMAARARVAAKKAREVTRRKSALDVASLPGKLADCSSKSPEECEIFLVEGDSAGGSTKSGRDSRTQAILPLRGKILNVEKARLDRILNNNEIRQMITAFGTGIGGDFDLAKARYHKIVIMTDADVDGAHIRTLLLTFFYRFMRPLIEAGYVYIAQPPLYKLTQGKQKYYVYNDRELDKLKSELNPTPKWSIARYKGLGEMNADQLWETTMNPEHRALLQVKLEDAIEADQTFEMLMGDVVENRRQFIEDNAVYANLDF
# [27] = test system: M. tuberculosis strains; assay: MABA MIC, mycobacterial strains as a group; type: cell-based; conditions: Mycobacterium tuberculosis, read-out: MIC antimycobacterial (strain not specified)
SMILES,MIC [1] [µg/mL],MIC [3] [µg/mL],IC50 [4] [µM],MIC [5] [µg/mL],MIC [7] [µg/mL],IC50 [8] [µM],SI SW480 [8],MIC [9] [µg/mL],MIC [10] [µg/mL],MIC [11] [µg/mL],MIC [12] [µg/mL],"IC50 ([13]; Homo sapiens, SW-620, 72 h) [µM]",SI SW620 [13],MIC [15] [µg/mL],MIC [16] [µg/mL],MIC [17] [µg/mL],MIC [19] [µg/mL],MIC [20] [µg/mL],MIC [21] [µg/mL],"IC50 ([22]; Homo sapiens, PC-3, 72 h) [µM]",further results
"CCCCC/C=C\C/C=C\C/C=C\C/C=C\CCCC(=O)N1CCCC2CN(c3c(F)cc4c(=O)c(C(=O)O)cn(C5CC5)c4c3OC)CC21 (centres unmarked) [Compound 13m, 1-Cyclopropyl-6-fluoro-7-{1-(5Z,8Z,11Z,14Z)-icosa-5,8,11,14-tetraenoyl-octahydro-pyrrolo[3,4-b]pyridin-6-yl}-8-methoxy-4-oxo-1,4-dihydro-quinoline-3-carboxylic acid]",512,4,93.3 ± 2.8,16,8,32.3 ± 4.1,2.9,8,256,16,8,39.4 ± 4.1,2.4,4,16,> 512,16,16,8 to 32,28.3 ± 2.8,"MIC ([2]; 2 weeks of treatment): 4 µg/mL; MIC E. coli ATCC 25922 ([6]; 18 h of treatment): 2 to 16 µg/mL; MIC ([6]; ATCC25922, 18 h of treatment): 16 µg/mL; MIC [14]: 2 to 8 µg/mL; MIC ([18]; 2 weeks of treatment): 4 µg/mL; SI PC3 [22]: 3.3; MIC [23]: 16 µg/mL"
"C=CCCCCC(=O)N1CCCC2CN(c3c(F)cc4c(=O)c(C(=O)O)cn(C5CC5)c4c3OC)CC21 (centres unmarked) [Compound 10m, 1-Cyclopropyl-6-fluoro-7-(1-hept-6-enoyl-octahydro-pyrrolo[3,4-b]pyridin-6-yl)-8-methoxy-4-oxo-1,4-dihydro-quinoline-3-carboxylic acid]",16,2,87.6 ± 4.5,2,4,5.8 ± 0.8,15.1,4,16,2,2,6.2 ± 1.1,14.1,2,2,> 512,4,2,2 to 4,< 5,"MIC ([2]; 2 weeks of treatment): 32 µg/mL; MIC ([6]; ATCC25922, 18 h of treatment): 32 µg/mL; MIC [14]: 2 to 8 µg/mL; MIC ([18]; 2 weeks of treatment): 32 µg/mL; SI PC3 [22]: 19.0; IC50 [22]: 4.6 ± 1.1 µM; MIC [23]: 2 µg/mL"
"CC/C=C\C/C=C\C/C=C\C/C=C\C/C=C\C/C=C\CCC(=O)N1CCCC2CN(c3c(F)cc4c(=O)c(C(=O)O)cn(C5CC5)c4c3OC)CC21 (centres unmarked) [Compound 8m, 1-Cyclopropyl-7-{1-(4Z,7Z,10Z,13Z,16Z,19Z)-docosa-4,7,10,13,16,19-hexaenoyl-octahydro-pyrrolo[3,4-b]pyridin-6-yl}-6-fluoro-8-methoxy-4-oxo-1,4-dihydro-quinoline-3-carboxylic acid]",512,4,81.4 ± 3.2,2,4,6.2 ± 1.3,13.1,4,512,4,4,9.4 ± 3.7,8.7,4,2,> 512,4,2,2 to 4,5.6 ± 1.9,"MIC ([2]; 2 weeks of treatment): 8 µg/mL; MIC E. coli ATCC 25922 ([6]; 18 h of treatment): 2 to 16 µg/mL; MIC ([6]; ATCC25922, 18 h of treatment): 2 µg/mL; IC50 [24]: > 89.9 µM; MIC [14]: 4 µg/mL; MIC ([18]; 2 weeks of treatment): 4 µg/mL; IC50 ([25]; Homo sapiens): 5 to 10 µM; IC50 [25]: 5.6 to 10.4 µM; IC50 [26]: > 89.9 µM; SI PC3 [22]: 14.5; MIC [23]: 2 µg/mL"
"C/C=C/C=C/C(=O)N1CCCC2CN(c3c(F)cc4c(=O)c(C(=O)O)cn(C5CC5)c4c3OC)CC21 (centres unmarked) [Compound 2m, 1-Cyclopropyl-6-fluoro-7-{1-(2E,4E)-hexa-2,4-dienoyl-octahydro-pyrrolo[3,4-b]pyridin-6-yl}-8-methoxy-4-oxo-1,4-dihydro-quinoline-3-carboxylic acid]",32,1,99.1 ± 1.8,1,1,6.3 ± 1.2,15.7,2,32,1,1,< 5,25.4,0.5,1,> 512,2,1,0.5 to 2,< 5,"MIC ([2]; 2 weeks of treatment): 32 µg/mL; MIC ([6]; ATCC25922, 18 h of treatment): 64 µg/mL; IC50 [24]: > 129 µM; IC50 [13]: 3.9 ± 1.1 µM; MIC ([14]; 18 h): 0.5 to 1 µg/mL; MIC ([18]; 2 weeks of treatment): 32 µg/mL; IC50 [26]: > 129 µM; SI PC3 [22]: 36.7; IC50 [22]: 2.7 ± 1.1 µM; MIC [23]: 1 µg/mL"
"COc1c(N2CC3CCCN(C(=O)/C=C(\C)CCC=C(C)C)C3C2)c(F)cc2c(=O)c(C(=O)O)cn(C3CC3)c12 (centres unmarked) [Compound 3m, 1-Cyclopropyl-7-{1-(2E)-(3,7-dimethyl-octa-2,6-dienoyl)-octahydro-pyrrolo[3,4-b]pyridin-6-yl}-6-fluoro-8-methoxy-4-oxo-1,4-dihydro-quinoline-3-carboxylic acid]",8,8,81.2 ± 2.6,8,8,26.7 ± 1.4,3.0,16,16,8,16,38.2 ± 4.1,2.1,8,8,> 64,16,8,8 to 32,23.5 ± 4.7,"MIC [2]: 128 µg/mL; MIC ([6]; ATCC25922, 18 h): 128 µg/mL; IC50 [24]: > 116 µM; MIC [27]: ≥ 128 µg/mL; MIC [18]: 128 µg/mL; IC50 [26]: > 116 µM; SI PC3 [22]: 3.5; MIC [23]: 8 µg/mL"

# Source: PMC9181188 (International Journal of Molecular Sciences, 2022)
